Calls of active or inactive are those of the source.
Tests used:
[1] = biological target: DNA dC->dU-editing enzyme APOBEC-3A (Homo sapiens, UniProt P31941); assay: SAR analysis of small molecule inhibitors of APOBEC3A DNA Deaminase via a fluorescence-based single-stranded DNA deaminase assay.; type: functional; conditions: read-out: IC50_Mean
[2] = biological target: DNA dC->dU-editing enzyme APOBEC-3G (Homo sapiens, UniProt Q9HC16); assay: inhibition of APOBEC3G ssDNA deamination – biochemical, fluorescence, single-stranded DNA substrate, SAR follow-up (AID 602136); type: functional; conditions: read-out: IC50_Mean
Sequence of DNA dC->dU-editing enzyme APOBEC-3G (Q9HC16 whole entry): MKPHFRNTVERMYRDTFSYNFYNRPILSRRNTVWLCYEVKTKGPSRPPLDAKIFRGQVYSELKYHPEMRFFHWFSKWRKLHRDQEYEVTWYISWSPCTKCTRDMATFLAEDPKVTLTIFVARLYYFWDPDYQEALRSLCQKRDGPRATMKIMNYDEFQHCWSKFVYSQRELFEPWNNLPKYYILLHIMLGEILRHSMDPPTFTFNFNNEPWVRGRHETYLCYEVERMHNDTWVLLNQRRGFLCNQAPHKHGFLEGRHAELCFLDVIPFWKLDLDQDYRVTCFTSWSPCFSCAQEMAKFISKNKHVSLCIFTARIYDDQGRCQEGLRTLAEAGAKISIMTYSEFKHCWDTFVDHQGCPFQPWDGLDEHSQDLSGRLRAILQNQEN

[3] = Vero cell cytotoxicity, dose response, cytotoxicity control for M. tuberculosis growth inhibitor project, Vero cells, purified and synthesized compounds, set 4 (AID 504854); type: functional; conditions: Mycobacterium tuberculosis
[4] = THP-1 cell cytotoxicity, dose response, cytotoxicity control, set 3 (AID 504852); type: functional; conditions: Mycobacterium tuberculosis
[5] = NIH-3T3 fibroblast cytotoxicity, dose response, cytotoxicity control, cell-based, fluorescence, Alamar Blue, secondary assay (AID 2327); type: functional;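 note: NIH-3T3 mouse fibroblasts cultured with fluconazole at 8 µg/mL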
[6] = biological target: Photoreceptor-specific nuclear receptor (Homo sapiens, UniProt Q9Y5X4); type: functional, cell-based;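 note: CHO-S cells with Gal4-NCOR and VP16-NR2E3 two-hybrid luciferase reporter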
Sequence of Photoreceptor-specific nuclear receptor (Q9Y5X4 whole entry, the tested form may be a part): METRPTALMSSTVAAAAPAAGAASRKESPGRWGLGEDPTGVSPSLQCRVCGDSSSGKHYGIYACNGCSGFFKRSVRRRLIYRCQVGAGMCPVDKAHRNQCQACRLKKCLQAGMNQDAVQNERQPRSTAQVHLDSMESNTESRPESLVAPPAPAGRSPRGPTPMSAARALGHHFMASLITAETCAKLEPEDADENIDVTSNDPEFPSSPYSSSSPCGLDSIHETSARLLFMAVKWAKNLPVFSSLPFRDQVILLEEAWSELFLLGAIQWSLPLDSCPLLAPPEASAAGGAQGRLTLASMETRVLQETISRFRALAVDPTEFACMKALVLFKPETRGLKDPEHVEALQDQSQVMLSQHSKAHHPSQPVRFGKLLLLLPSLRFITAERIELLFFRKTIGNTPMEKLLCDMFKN

[7] = fluconazole-exposed Candida albicans growth modulators – fluorescence, retest, confirmation (AID 2467); type: functional, cell-based
[8] = test system: HEK293; assay: EBV LMP1 TES2 canonical NF-kB signalling blockers – cell-based, HEK293, luciferase, cherry-pick, dose response (AID 588343); type: functional; conditions: Homo sapiens
[9] = NIH3T3 cell viability loss – ATP luminescence, mouse fibroblasts, counter-screen, dose response (AID 2010); type: functional, cell-based;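 note: cells exposed to compound for about 90 hours before reading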
[10] = biological target: Serine/threonine-protein phosphatase PP1-alpha catalytic subunit (Homo sapiens, UniProt P62136); assay: inhibition of protein phosphatase 1 activity – biochemical, fluorescence, dose response (AID 2403);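 note: phosphatase turnover of OMFP into fluorescent 3-O-methylfluorescein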
Sequence of Serine/threonine-protein phosphatase PP1-alpha catalytic subunit (P62136 whole entry): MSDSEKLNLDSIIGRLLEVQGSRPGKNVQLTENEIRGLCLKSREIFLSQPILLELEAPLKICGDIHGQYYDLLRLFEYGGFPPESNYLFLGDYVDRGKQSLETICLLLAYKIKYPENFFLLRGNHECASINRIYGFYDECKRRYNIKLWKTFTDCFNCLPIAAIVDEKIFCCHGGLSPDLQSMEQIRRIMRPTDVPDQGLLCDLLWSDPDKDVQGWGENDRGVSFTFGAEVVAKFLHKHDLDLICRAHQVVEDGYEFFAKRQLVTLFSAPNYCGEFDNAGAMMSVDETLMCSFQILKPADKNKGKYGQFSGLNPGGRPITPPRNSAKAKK

[11] = test system: INS1; assay: INS-1E survival protection against cytokine death – cell-based, luminescence, retest, dose response (AID 449756); type: functional; conditions: Rattus norvegicus;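 note: cell death triggered by IL-1 beta plus TNF-alpha plus IFN-gamma mixture; protective hits raise ATP signal compared with cytokine alone wells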
[12] = Trypanosoma cruzi growth suppression in host cells – NIH3T3 host cells, beta-gal luminescence, confirmation (AID 2044); type: functional, cell-based;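 note: intracellular parasites grown in NIH/3T3 mouse fibroblasts as host cells; luminescent beta-galactosidase reporter signal from transgenic T. cruzi replicating inside host cells; inhibitors lower the luminescence signal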
[13] = biological target: Serine/threonine-protein phosphatase (Homo sapiens, UniProt Q9BPW0); assay: Counterscreen for inhibitors of PP1: fluorescence-based biochemical high throughput dose response assay to identify inhibitors of Protein Phosphatase 5 (PP5). [Related pubchem assays: 2034 (Summary (PP5 inhibitors)), 1987 (PP5 inhibitors in singlate), 2235 (PP1 inhibitors in singlate)]
Sequence of Serine/threonine-protein phosphatase (Q9BPW0 whole entry): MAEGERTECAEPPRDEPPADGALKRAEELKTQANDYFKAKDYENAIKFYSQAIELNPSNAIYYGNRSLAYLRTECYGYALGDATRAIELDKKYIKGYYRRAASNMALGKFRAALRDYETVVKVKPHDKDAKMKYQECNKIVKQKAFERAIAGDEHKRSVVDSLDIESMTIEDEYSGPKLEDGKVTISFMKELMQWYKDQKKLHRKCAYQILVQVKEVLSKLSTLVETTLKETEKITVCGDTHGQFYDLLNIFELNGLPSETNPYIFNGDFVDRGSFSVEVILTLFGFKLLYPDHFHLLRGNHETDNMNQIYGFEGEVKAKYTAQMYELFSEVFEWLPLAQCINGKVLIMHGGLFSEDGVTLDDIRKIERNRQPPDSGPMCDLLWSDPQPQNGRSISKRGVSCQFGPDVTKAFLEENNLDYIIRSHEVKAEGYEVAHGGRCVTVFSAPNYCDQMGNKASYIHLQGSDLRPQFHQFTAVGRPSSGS

[14] = biological target: Latent membrane protein 1 (Human herpesvirus 4 (strain B95-8), UniProt P03230); assay: LMP1 TES1 pathway selectivity over dsRED control – imaging, HEK293T, dual-color eGFP/dsRED, cherry-picks, selectivity assay for LMP1 NF-kB inhibitor project, dose response (AID 588398); type: functional, cell-based
Sequence of Latent membrane protein 1 (P03230 whole entry): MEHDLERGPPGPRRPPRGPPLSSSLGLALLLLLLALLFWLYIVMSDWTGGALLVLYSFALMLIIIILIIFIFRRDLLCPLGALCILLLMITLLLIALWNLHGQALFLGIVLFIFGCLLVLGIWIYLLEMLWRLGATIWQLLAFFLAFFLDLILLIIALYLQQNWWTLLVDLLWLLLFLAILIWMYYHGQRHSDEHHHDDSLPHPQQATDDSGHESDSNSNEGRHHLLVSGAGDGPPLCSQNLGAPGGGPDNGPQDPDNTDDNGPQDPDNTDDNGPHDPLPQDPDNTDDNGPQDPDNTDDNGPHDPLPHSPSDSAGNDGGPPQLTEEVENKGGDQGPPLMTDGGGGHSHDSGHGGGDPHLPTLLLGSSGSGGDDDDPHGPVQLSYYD

[15] = test system: CHO-K1; assay: (§1) Counterscreen for antagonists of the orexin 1 receptor (OX1R; HCRTR1): Homogeneous time resolved fluorescence (HTRF)-based cell-based dose response assay to identify antagonists of the parental CHO-K1 cell line. [Related pubchem assays (depositor defined):AID434989, AID435008, AID463079, AID485270, AID492963, AID492964, AID492965, AID493232, AID504699, AID504701]; type: functional; conditions: Cricetulus griseus
[16] = as §1, with “Fluorescence-based” for “Homogeneous time resolved fluorescence (HTRF)-based”, “cell-based high throughput” for “cell-based”, “CHO” for “CHO-K1”; type: functional
[17] = biological target: T1, Orexin receptor type 2 (Homo sapiens, UniProt O43614); assay: Counterscreen assay for antagonists of the orexin 1 receptor (OX1R; HCRTR1): Fluorescence-based cell-based dose response assay for antagonists of the orexin 2 receptor (OX2R; HCRTR2), run by assay provider.; type: functional
T1 sequence (O43614 whole entry): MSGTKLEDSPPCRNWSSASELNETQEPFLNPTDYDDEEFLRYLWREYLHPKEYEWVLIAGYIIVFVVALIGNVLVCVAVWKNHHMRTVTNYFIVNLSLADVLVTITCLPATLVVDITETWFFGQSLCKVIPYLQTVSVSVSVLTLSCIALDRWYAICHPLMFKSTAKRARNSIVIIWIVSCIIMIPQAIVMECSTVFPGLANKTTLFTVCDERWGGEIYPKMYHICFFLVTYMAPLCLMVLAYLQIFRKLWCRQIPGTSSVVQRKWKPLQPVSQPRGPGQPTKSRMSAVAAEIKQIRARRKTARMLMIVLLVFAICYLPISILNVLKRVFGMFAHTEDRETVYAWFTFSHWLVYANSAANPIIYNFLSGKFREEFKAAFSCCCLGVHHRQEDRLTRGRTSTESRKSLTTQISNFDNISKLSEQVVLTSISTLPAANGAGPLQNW

[18] = biological target: T2, Orexin/Hypocretin receptor type 1 (Homo sapiens, UniProt O43613); assay: Homogeneous Time Resolved Fluorescence (HTRF)-based cell-based high throughput dose response assay for antagonists of the orexin 1 receptor (OX1R; HCRTR1). [Related pubchem assays (depositor defined):AID434989, AID435008, AID463079, AID485270, AID492963, AID492964, AID492965, AID493232, AID504717, AID504718]; type: functional
T2 sequence (O43613 whole entry): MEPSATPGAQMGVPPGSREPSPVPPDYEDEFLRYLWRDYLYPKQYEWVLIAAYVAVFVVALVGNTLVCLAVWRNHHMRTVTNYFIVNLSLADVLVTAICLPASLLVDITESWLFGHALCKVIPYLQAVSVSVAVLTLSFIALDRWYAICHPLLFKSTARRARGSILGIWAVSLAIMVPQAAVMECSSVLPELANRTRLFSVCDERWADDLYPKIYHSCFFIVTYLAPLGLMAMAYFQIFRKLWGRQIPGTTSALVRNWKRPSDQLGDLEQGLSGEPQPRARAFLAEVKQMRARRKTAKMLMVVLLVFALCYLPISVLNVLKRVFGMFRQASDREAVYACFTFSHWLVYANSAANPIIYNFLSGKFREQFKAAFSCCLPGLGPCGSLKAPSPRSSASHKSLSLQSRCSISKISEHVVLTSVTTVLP

[19] = biological target: T2, Orexin/Hypocretin receptor type 1; assay: Fluorescence-based cell-based high throughput dose response assay for antagonists of the orexin 1 receptor (OX1R; HCRTR1). [Related pubchem assays (depositor defined):AID434989, AID435008, AID463079, AID485270, AID492963, AID492964, AID492965, AID493232, AID504717, AID504718]; type: functional
[20] = biological target: T1, Orexin receptor type 2; assay: Counterscreen assay for antagonists of the orexin 1 receptor (OX1R; HCRTR1): Homogeneous Time Resolved Fluorescence (HTRF)-based cell-based dose response assay for antagonists of the orexin 2 receptor (OX2R; HCRTR2), run by assay provider.; type: functional

Sequence of DNA dC->dU-editing enzyme APOBEC-3A (P31941 whole entry): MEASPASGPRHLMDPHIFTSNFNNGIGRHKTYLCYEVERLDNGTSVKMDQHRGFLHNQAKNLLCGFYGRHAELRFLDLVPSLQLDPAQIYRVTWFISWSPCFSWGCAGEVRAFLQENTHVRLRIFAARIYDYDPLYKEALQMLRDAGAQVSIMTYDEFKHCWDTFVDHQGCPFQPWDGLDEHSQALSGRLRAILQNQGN

CCOC(=O)CC(c1ccc(N)cc1)n1c(C)ccc1C (stereo not given)
IC50 [1]: > 99 µM (inactive) | IC50 [2]: > 99 µM (inactive)

CC1CCN(C(=O)CSc2nc(O)c3ccccc3n2)CC1
CC50 [3]: > 100 µM (active) | CC50 [4]: > 100 µM (active)

COc1cnc(-c2ccccn2)nc1Sc1ccccc1Cl
EC50 [5]: > 150 µM (inconclusive) | IC50 [6]: 4.25 µM (active) | EC50 [7]: > 38 µM (not active) | AC50 [8]: 112 µM (active) | EC50 [9]: > 60 µM (not active) | IC50 [10]: 7.8 µM (active) | AC50 [11]: 7.29 µM (active) | EC50 [12]: 2.36 µM (active) | IC50 [13]: 59.1 µM (not active) | AC50 [14]: 15.4 µM (active)

Cc1cc(Cl)ccc1OCCCC(=O)NCCN1C(=O)S/C(=C\c2cccnc2)C1=O
IC50 [15]: > 66.2 µM (inactive) | IC50 [16]: 21.1 µM (inactive) | IC50 [17]: 17.5 µM (inactive) | IC50 [18]: 264 nM (active) | IC50 [19]: 1.13 µM (active) | IC50 [20]: > 50 µM (inactive)
